Experimental data from PMC10979476, “Molecular Deformation Is a Key Factor in Screening Aggregation Inhibitor for Intrinsically Disordered Protein Tau” (ACS Central Science, 2024).

Columns and labels:
SK-N-SH cells = test: CCK-8 cell survival assay; type: cell-based, human; details: 24 h; for cytotoxicity (in words): different concentrations, SK-N-SH cells
Procedure: After the above-mentioned systematic study of SAR at the molecular level, we wondered whether these inhibitory effects can be reproduced in the actual biological system, laying the foundation for the discovery of drug lead compounds. Therefore, the cytotoxicity and inhibitory effects of these synthetic compounds were evaluated by human neuroblastoma SK-N-SH cells. […] The cell viability of SK-N-SH was assessed using a cell counting kit-8 (CCK-8) assay.[48] It could be seen that the cell survival rate was still higher than 70% when the concentration of IPP1 reached 30 μM. […]
11. In Vitro Cellular Uptake and Cell Cytotoxicity.
Cell viability was assessed using Cell Counting Kit-8 (CCK-8) assay following the manufacturer’s instructions. SK-N-SH cells were seeded at a density of 2.0 × 10^4 cells per well in a 96-well plate and incubated for 24 h to adhere in a humidified chamber. Then, the cells were treated with various concentrations of compounds IPP1~IPP4 for 24 h. After that, the culture supernatants were removed, and 90 μL of medium and 10 μL of CCK-8 solution were then added. After further incubation for 3 h at 37 °C, the absorbance was measured at 450 nm using Microplate Reader 581 (SpectraMax iD3). Six replicates were used in each group.
12. In Vitro Evaluation of Inhibitory Effects of Inhibitor on Tau Aggregation In SK-N-SH Cell.
The effect of inhibitors on the formation of aggregate tau in SK-N-SH was tested by using the previously reported method15. First, SK-N-SH was grown on glass coverslips in 12-well plate at a […]

tau hexapeptide VQIVYK = biological target: T1, tau hexapeptide VQIVYK (Homo sapiens, UniProt P10636); test: Heparin-induced aggregation of tau hexapeptide VQIVYK, fluorescence assay; type: biochemical; details: VQIVYK 15 μM, Figure S15
T1 construct: 306VQIVYK311(15 μM), ThS, VQIVYK+heparin
Text: The carbonyl group in five-membered ring A in IPP1 forms a hydrogen bond with the amino group on glutamine (GLN307), valine (VAL309), and tyrosine (TYR310). The nitrogen atom in pyridine ring C in IPP1 also forms a hydrogen bond with the amino group of isoleucine (ILE308). Pyridine ring C on IPP1 forms π–π stacking with the benzene ring on TYR310. The five-membered ring A in IPP1 also forms hydrophobic contacts with glycine (GLY304), VAL306, and VAL309, which further increases the interaction between the molecule IPP1 and tau. […] Visually, IPP1 is like a molecular clip that firmly holds the key region, preventing the peptide from freely curling/folding and increasing the possibility to inhibit aggregation. […] As a result, the effective interactions between these compounds and tau peptide chains are much less than those of IPP1. […] To verify the docking results, we directly applied IPP1 to the aggregation of tau hexapeptide VQIVYK (Figure S15). […] The positive experimental results of IPP1 inhibition on tau hexapeptide further confirmed the reliability of our theoretical speculation on the target segment. […]
17. The fluorescence spectra of peptide fragments systems in the presence or absence of IPP1
Figure S15. The fluorescence spectra of peptide fragments systems containing […]

O=C1Nc2ccc(-c3ccc(N4CCCC4)nc3)cc2C1=O [IPP2, 5-(6-(pyrrolidin-1-yl)pyridin-3-yl)indoline-2,3-dione]
cytotoxicity (in words) (SK-N-SH cells): lowest cytotoxicity

O=C1Nc2cccc(-c3ccc(N4CCCC4)nc3)c2C1=O [IPP1, 4-(6-(pyrrolidin-1-yl)pyridin-3-yl)indoline-2,3-dione]
cell survival rate (SK-N-SH cells; 30 μM, tau-infected SK-N-SH cells): higher than 70%
cytotoxicity (in words) (SK-N-SH cells): relatively low cytotoxicity
aggregation of tau hexapeptide induced by heparin (tau hexapeptide VQIVYK): significantly reduced the aggregation of tau hexapeptide

O=C1Nc2cc(-c3ccc(N4CCCC4)nc3)ccc2C1=O [IPP3, 6-(6-(pyrrolidin-1-yl)pyridin-3-yl)indoline-2,3-dione]
cytotoxicity (in words) (SK-N-SH cells): toxicity is not negligible
